Test results reported in patent publication US10858335B2 (Rigel Pharmaceuticals, Inc., priority 2014, dated 2020).

System: GDF8 signaling (p-SMAD-3 (Ser423/425))
Assay: AlphaScreen SureFire SMAD3 (p-Ser423/425) assay, GDF8-stimulated cells (GDF pSMAD)
Assay type: cell-based
Conditions: Mus musculus, MPC-11, GDF8-stimulated pSMAD3, MPC11; tested as the salt form given; read-out: GDF pSMAD (MPC11) (μM), inhibition of GDF8 signaling

Structure (SMILES) | IC50 [µM]
COC(=O)CNc1ncnc2ccc(-c3cccnc3-c3ccc(F)c(C)c3)cc12 [compound 1028, methyl (6-(2-(4-fluoro-3-methylphenyl)pyridin-3-yl)quinazolin-4-yl)glycinate] | 10.4
Fc1cc(F)c(F)c(-c2ncccc2-c2ccc3ncsc3c2)c1 [compound 1055] | 0.129
COc1cc(-c2ncccc2-c2ccc3ncnc(N)c3c2)c(Cl)cc1F [compound 1008, 6-(2-(2-chloro-4-fluoro-5-methoxyphenyl)pyridin-3-yl)quinazolin-4-amine] | 5.81

Same assay, conditions: Mus musculus, MPC-11, MPC11; GDF8-stimulated; p-SMAD3 AlphaScreen; read-out: GDF pSMAD (MPC11) (inhibition of GDF8 signaling)

Structure (SMILES) | IC50 [µM]
CS(=O)(=O)Nc1cnc(-c2cccc(C3CC3)c2)c(-c2ccc3[nH]ncc3c2)c1 [Compound 31, N-(6-(3-Cyclopropylphenyl)-5-(1H-indazol-5-yl)pyridin-3-yl) methanesulfonamide] | 1.9
Cc1cccc(-c2ncccc2-c2ccc3ncncc3c2)c1 [compound 364, 6-(2-(m-Tolyl)pyridin-3-yl)quinazoline] | 0.338
Cc1cc(-c2ncccc2-c2ccc3ncc(C(=O)NCCN4CCOCC4)n3c2)ccc1F [compound 585, 6-(2-(4-Fluoro-3-methylphenyl)pyridin-3-yl)-N-(2-morpholinoethyl)imidazo[1,2-a]pyridine-3-carboxamide] | 0.51
Cc1cc(-c2ncccc2-c2ccn3ncc(C(=O)NCC4CCN(C)CC4)c3c2)ccc1F [compound 656, 5-(2-(4-Fluoro-3-methylphenyl)pyridin-3-yl)-N-((1-methylpiperidin-4-yl)methyl)pyrazolo[1,5-a]pyridine-3-carboxamide] | 0.55
N#Cc1cccc(-c2ncccc2-c2ccc3ncsc3c2)c1 [compound 670, 3-(3-(Benzo[d]thiazol-6-yl)pyridin-2-yl)benzonitrile] | 0.367
[2H]C([2H])([2H])c1cccc(-c2ncccc2-c2ccc3ncsc3c2)c1 [compound 603, 6-(2-(3-(Methyl-d3)phenyl)pyridin-3-yl)benzo[d]thiazole] | 0.109
COc1ccc(-c2ncccc2-c2ccc3[nH]ncc3c2)cc1 [Compound 118, 5-(2-(4-Methoxyphenyl)pyridin-3-yl)-1H-indazole] | 3.79
Cc1cc(-c2ncccc2-c2ccn3c(C(=O)NCCCN4CCCC4=O)ncc3c2)ccc1F [compound 274, 7-(2-(4-Fluoro-3-methylphenyl)pyridin-3-yl)-N-(3-(2-oxopyrrolidin-1-yl)propyl)imidazo[1,5-a]pyridine-3-carboxamide] | 14.8
Fc1ccc(-c2ncccc2-c2ccc3ncnc(Nc4cccnc4)c3c2)cc1Cl [compound 490, 6-(2-(3-Chloro-4-fluorophenyl)pyridin-3-yl)-N-(pyridin-3-yl)quinazolin-4-amine] | 6.51
COc1cc(CNc2cnc(-c3ccc(F)c(C)c3)c(-c3ccc4ncsc4c3)c2)cc(OC)c1O [compound 366, 4-(((5-(Benzo[d]thiazol-6-yl)-6-(4-fluoro-3-methylphenyl)pyridin-3-yl)amino)methyl)-2,6-dimethoxyphenol] | 0.226
Cc1cccc(-c2ncccc2-c2ccc3ncc(C(=O)NCCCN4CCCC4=O)n3c2)c1 [compound 724, N-(3-(2-Oxopyrrolidin-1-yl)propyl)-6-(2-(m-tolyl)pyridin-3-yl)imidazo[1,2-a]pyridine-3-carboxamide] | 0.537
Cc1cc(-c2ncccc2-c2ccn3c(-c4ccncc4)ncc3c2)ccc1F [compound 287, 7-(2-(4-Fluoro-3-methylphenyl)pyridin-3-yl)-3-(pyridin-4-yl)imidazo[1,5-a]pyridine] | 3.03
COc1cnc(-c2cc(Cl)ccc2F)c(-c2ccn3ncnc3c2)c1 [compound 858, 7-(2-(5-Chloro-2-fluorophenyl)-5-methoxypyridin-3-yl)-[1,2,4]triazolo[1,5-a]pyridine] | 2.37
Clc1cccc(-c2ncccc2-c2ccc3ncsc3c2)c1 [compound 668, 6-(2-(3-Chlorophenyl)pyridin-3-yl)benzo[d]thiazole] | 0.313
Cc1cc(-c2ncccc2-c2ccc3[nH]ncc3c2)ccc1O [Compound 122, 4-(3-(1H-Indazol-5-yl)pyridin-2-yl)-2-methylphenol] | 4.04
Clc1ccc(Cl)c(-c2ncccc2-c2ccc3ncsc3c2)c1 [compound 869, 6-(2-(2,5-Dichlorophenyl)pyridin-3-yl)benzo[d]thiazole] | 0.688
Cc1cccc(-c2ncccc2-c2cc(C)c3[nH]ncc3c2)c1 [Compound 176, 7-Methyl-5-(2-m-tolylpyridin-3-yl)-1H-indazole] | 0.057
Cc1cc(-c2ncc(-c3cn[nH]c3)cc2-c2ccc3ncsc3c2)ccc1F [compound 345, 6-(2-(4-Fluoro-3-methylphenyl)-5-(1H-pyrazol-4-yl)pyridin-3-yl)benzo[d]thiazole] | 4.83
Cc1cc(-c2ncccc2-c2ccc3ncnn3n2)ccc1F [compound 952, 6-(2-(4-Fluoro-3-methylphenyl)pyridin-3-yl)-[1,2,4]triazolo[1,5-b]pyridazine] | 0.391
Nc1nc2ccc(-c3cccnc3-c3ccc(F)c(Cl)c3)nc2s1 [compound 302, 5-(2-(3-Chloro-4-fluorophenyl)pyridin-3-yl)thiazolo[5,4-b]pyridin-2-amine] | 0.795
Nc1ncnc2ccc(-c3cccnc3-c3ccc(F)c(F)c3)cc12 [compound 453, 6-(2-(3,4-Difluorophenyl)pyridin-3-yl)quinazolin-4-amine] | 0.816

Structure (SMILES) | IC50 [µM]
O=C(NCCCN1CCCC1=O)c1cnc2ccc(-c3cccnc3-c3cc(Cl)c(F)cc3F)cn12 [compound 730, 6-(2-(5-Chloro-2,4-difluorophenyl)pyridin-3-yl)-N-(3-(2-oxopyrrolidin-1-yl)propyl)imidazo[1,2-a]pyridine-3-carboxamide] | 0.59
Cc1cc(-c2ncccc2-c2ccc3c(cnn3C(=O)NCCN3CCCC3)c2)ccc1F [compound 636, 5-(2-(4-Fluoro-3-methylphenyl)pyridin-3-yl)-N-(2-(pyrrolidin-1-yl)ethyl)-1H-indazole-1-carboxamide] | 8.69
O=C1CCCN1CCCOc1ncnc2ccc(-c3cccnc3-c3ccc(F)c(Cl)c3)cc12 [compound 436, 1-(3-((6-(2-(3-Chloro-4-fluorophenyl)pyridin-3-yl)quinazolin-4-yl)oxy)propyl)pyrrolidin-2-one] | 1.18
Cc1ccc(F)c(-c2ncccc2-c2ccc3ncsc3c2)c1 [compound 667, 6-(2-(2-Fluoro-5-methylphenyl)pyridin-3-yl)benzo[d]thiazole] | 0.226
Cc1cccc(-c2ncccc2-c2ccc3ncsc3c2)c1 [Compound 160, 6-(2-m-Tolylpyridin-3-yl)benzo[d]thiazole] | 0.0843
Cc1cc(-c2ncccc2-c2cc(C)c3[nH]ncc3c2)ccc1F [Compound 175, 5-(2-(4-Fluoro-3-methylphenyl)pyridin-3-yl)-7-methyl-1H-indazole] | 0.118
Fc1cc(F)c(-c2ncccc2-c2ccn3ncnc3c2)cc1Cl [compound 735, 7-(2-(5-Chloro-2,4-difluorophenyl)pyridin-3-yl)-[1,2,4]triazolo[1,5-a]pyridine] | 0.676
CCN(CC)c1ncnc2ccc(-c3cccnc3-c3cccc(O)c3)cc12 [compound 399, 3-(3-(4-(Diethylamino)quinazolin-6-yl)pyridin-2-yl)phenol] | 4.65
Cc1cccc(-c2ncccc2-c2ccc3ncn(CCCN4CCOCC4)c3c2)c1 [compound 250, 4-(3-(6-(2-m-Tolylpyridin-3-yl)-1H-benzo[d]imidazol-1-yl)propyl)morpholine] | 10.5
Cc1cccc(-c2ncccc2-c2ccc3[nH]ncc3c2)n1 [compound 116, 5-(2-(6-Methylpyridin-2-yl)pyridin-3-yl)-1H-indazole] | 0.0326
Clc1cccc(-c2ncccc2-c2ccn3ncnc3c2)c1 [compound 734, 7-(2-(3-Chlorophenyl)pyridin-3-yl)-[1,2,4]triazolo[1,5-a]pyridine] | 0.694
Cc1ccc(F)c(-c2ncccc2-c2ccc3ncc(C#N)n3c2)c1 [compound 624, 6-(2-(2-Fluoro-5-methylphenyl)pyridin-3-yl)imidazo[1,2-a]pyridine-3-carbonitrile] | 0.161
N#Cc1cnn2ccc(-c3cccnc3-c3ccc(F)c(Cl)c3)nc12 [compound 900, 5-(2-(3-Chloro-4-fluorophenyl)pyridin-3-yl)pyrazolo[1,5-a]pyrimidine-3-carbonitrile] | 2.35
Cc1cc(-c2ncc(N)cc2-c2ccc3nccnc3c2)ccc1F [compound 239, 6-(4-Fluoro-3-methylphenyl)-5-(quinoxalin-6-yl)pyridin-3-amine] | 0.266
Cc1cc(-c2ncccc2-c2ccn3cncc3c2)ccc1F [compound 594, 7-(2-(4-Fluoro-3-methylphenyl)pyridin-3-yl)imidazo[1,5-a]pyridine] | 0.57
Cc1cc(-c2ncccc2-c2ccn3ncc(C(=O)NC4CCN(C(C)C)CC4)c3c2)ccc1F [compound 701, 5-(2-(4-Fluoro-3-methylphenyl)pyridin-3-yl)-N-(1-isopropylpiperidin-4-yl)pyrazolo[1,5-a]pyridine-3-carboxamide] | 0.167
Cc1cc(-c2ncccc2-c2ccc3c(cnn3C(=O)NCCN)c2)ccc1F [compound 639, N-(2-Aminoethyl)-5-(2-(4-fluoro-3-methylphenyl)pyridin-3-yl)-1H-indazole-1-carboxamide] | 10.6
Nc1ccnc2ccc(-c3cccnc3-c3ccc(F)c(Cl)c3)cc12 [compound 837, 6-(2-(3-Chloro-4-fluorophenyl)pyridin-3-yl)quinolin-4-amine] | 4.86
COc1ccnc2ccc(-c3cccnc3-c3cccc(Cl)c3)cc12 [compound 841, 6-(2-(3-Chlorophenyl)pyridin-3-yl)-4-methoxyquinoline] | 7.64
[2H]C([2H])([2H])c1cccc(-c2ncccc2-c2ccc3nccnc3c2)c1 [compound 605, 6-(2-(3-(Methyl-d3)phenyl)pyridin-3-yl)quinoxaline] | 7.94
Cc1cccc(-c2ncccc2-c2ccc3ncc(CO)n3c2)c1 [compound 566, (6-(2-(m-Tolyl)pyridin-3-yl)imidazo[1,2-a]pyridin-3-yl)methanol] | 0.342
